Patent US4104383A, “Derivatives of phenylpropenylamine” (C M Industries, priority 1973, dated 1978)
In brackets after ≈: the same amount, converted by molar mass. Like-named read-outs stand apart in the source and are kept apart here.

How the values were obtained:
central nervous system [1] = assay: Traction test; assay type: in vivo; conditions: mouse, read-out: Traction, median effective dose
Text: (Courvoisier S., Ducrot R. and Julou L. "Psychotropic Drugs", Elsevier, 1957, p.373)
In this test, a mouse was hung by its front legs on a stretched wire. The animal will normally recover by itself, by gripping with its rear legs within 5 seconds.
(§1) The results obtained from the tests described above are summarized in Table II; the figures given in this Table show the value of the median effective dose for each test. The method of administration is indicated by "I.V." for intravenous administration, "I.P." for intraperitoneal administration and "P.O." for oral administration.

mouse [2] = assay: Activity test (spontaneous motility, photoelectric cell cage); assay type: in vivo; conditions: read-out: Activity, median effective dose
Experimental: (Boissier J. R. and Simon P. "Archives Internationales de Pharmacodynamie",1965, 158, 212).
A mouse was placed in a Plexiglass cage crossed by a plurality of beams of light acting on photoelectric cells. When the mouse moved and thereby interrupted one of the beams, this caused an electrical pulse which was registered on a counter. The measurements were carried out on batches of six treated animals and six control animals for a period of 20 minutes.
as §1

mouse [3] = assay: Exploration test (plank with holes, anxiolytic activity); assay type: in vivo; conditions: read-out: Exploration, median effective dose
Experimental: (Boissier J. R. and Simon P. "Archives Internationales de Pharmacodynamie",1964, 147, 372).
This test, using a plank with holes in it, makes it possible to measure objectively the anxiolytic activity of a compound by noting the decrease in the number of holes explored within a given time by a treated mouse in comparison with a control mouse. The animals are used in batches of 10 and are allowed 5 minutes for exploration.
as §1

central nervous system [4] = assay: Balancing test (rotating shaft); assay type: in vivo; conditions: mouse, read-out: Balancing, median effective dose
Experimental: (Boissier J. R., Dumont C. and Ratouis R. "Therapie", 1960, 15, 1170)
In this test, mice were placed for 1 minute on a horizontal wooden shaft which rotated steadily at 12 r.p.m. The mice will normally counteract this movement using positional and balancing reflexes; if, however, the central nervous system is affected, these reflexes are disturbed and a certain number of animals fall off.
as §1

Toxicity, LD50 in mice = conditions: mouse, in vivo
Text: The toxicity of the compounds of the invention is generally low, as may be seen from Table IV, which gives the LD50 in mg/kg in mice for some of the compounds of the invention.

[5] = tested on: severely depressed hospital patients; assay: Clinical evaluation in severely depressed hospital patients; assay type: in vivo, human
Experimental: A clinical evaluation of 933 CB was carried out using a sample of […] severely depressed hospital patients who were considering suicide or in some cases had attempted it. The sample contained 13 cases of nervous depression, 10 cases of reactional depression, seven cases of psychotic depression and three cases of severe melancholia. A clear favourable action on the depressive […] occurred in 21 of the patients. Several cases where a favourable response was noted had previously been treated with tricyclic antidepressants without success. […] The daily dose of the compound administered to each patient varied from 20 to 200 mg, the most favourable results being obtained with a dose of 40 to 60 mg.

mouse [6] = assay: Reserpine test (reserpine-induced depression); assay type: in vivo; conditions: reserpine 5 mg/kg subcutaneously, read-out: Reserpine, median effective dose
Experimental: (Rubin B., Malone M. H., Waugh M. H. and Burke J. C., "Journal of Pharmacology and Experimental Therapeutics", 1957, 120, 125)
Reserpine, administered subcutaneously to a mouse in a dose of 5 mg/kg body weight, causes symptoms of severe depression, with absolute fixity, ptosis of the eyelids, hypothermia and catatonia; the simultaneous administration of a substance having anti-depressive properties leads to the progressive total or partial disappearance of this depressed state.
as §1

[7] = tested on: adynamic and depressive states; assay: Clinical use in adynamic and depressive states; assay type: in vivo; conditions: 2 to 10 compressed tablets of 100 mg daily or 1 to 5 injectible ampoules of 100 mg
Experimental: The compounds of the invention have been successfully used clinically to treat adynamic and depressive states, such as melancholia, reactive depressions and manic-depressive psychosis.
The compounds of the present invention are preferably formulated for oral administration or for injection. The compounds of the invention are also suitable for rectal administration. For oral administration, compressed tablets, each containing from 20 to 500 mg of active ingredient are recommended and for injection, ampoules each containing from 10 to 500 mg of active ingredient are recommended.

dorsal hippocampus = assay: Electroencephalographic study, electrical stimulation of the dorsal hippocampus; assay type: in vivo, rabbit; conditions: conscious rabbits, intravenous; 6 volts, 30 cycles per second, 5 seconds
Text: Electroencephalographic study
(Schmitt H. and Schmitt H., "Therapie", 1966, 3, 675-684)
Electrical stimulation of the dorsal hippocampus (6 volts; 30 cycles per second; 5 seconds, extent: 1.5 milliseconds) causes electrical discharges in the rabbit which continue for several seconds after cessation of electrical stimulation. These discharges last from 15 to 19 seconds in a normal animal. When the rabbit is under the influence of an antidepressant drug, these discharges last much longer. The experiment was carried out on batches of six conscious rabbits implanted by the technique of Monnier M. and Gangloff H. ("Atlas of Stereotaxic brain research on the conscious rabbit", Elsevier 1961), the products being administered intraveneously. The discharges were increased by 60% when the rabbits were treated with compound 933 CB and by 20 % when the rabbits were treated with compound 994 CB.

isolated rat duodenum = assay: Antispasmodic activity, barium chloride-induced spasms of isolated rat duodenum; conditions: tyrode bath 37° C, barium chloride 100 μg/liter, compound added 3 minutes before, read-out: 50% effective concentration
Experimental: The antispasmodic activity of the compounds of the invention was also studied on the isolated rat duodenum, kept alive in an aerated tyrode bath at 37° C. Spasms were induced by the administration of barium chloride in an amount of 100 μg/liter. The compounds of the invention were added, at various concentrations, to the tyrode bath 3 minutes before the addition of the spasmogenic agent and the concentration determined of each which reduced by 50% the extent of the contraction caused by this agent.

[8] = po, orally, read-out: LD50 orally
[9] = 30 severely depressed hospital patients, 20 to 200 mg daily

## CCN(CC)CC=Cc1ccc(C2CCCCC2)c(F)c1 [Compound 31030, 3-fluoro-4-cyclohexyl-1-(3-diethylamino-propen-1-yl)-benzene]
Central nervous system [1]; ip, I.P.
  ED50: 50 mg/kg
Mouse [2]; ip, I.P.
  ED50: 100 mg/kg
Mouse [3]; ip, I.P.
  ED50: ≥ 50 mg/kg
Central nervous system [4]; ip, I.P.
  ED50: 25 mg/kg

## CCN(CC)CC=Cc1ccc(C2CCCCC2)c(Cl)c1 [933 CB, 3-chloro-4-cyclohexyl-1-(3-diethylamino-propen-1-yl)-benzene]
Toxicity, LD50 in mice; ip, I.P., read-out: LD50 I.P.
  LD50: 125 mg/kg
Toxicity, LD50 in mice; [8]
  LD50: > 1080 mg/kg
[5]; [9]
  patients with a clear favourable action on the depressive thymine: 21 patients
  patients with improvement noted in less than a week: 13 patients
[5]; depressed patients
  rapidity of action (in words): The action was rapid
Central nervous system [1]; ip, I.P.
  ED50: 50 mg/kg
Central nervous system [1]; po, P.O.
  ED50: 100 mg/kg
Mouse [6]; ip, I.P.
  ED50: 75 mg/kg
Mouse [6]; po, P.O.
  ED50: 100 mg/kg
Mouse [2]; ip, I.P.
  ED50: 25 mg/kg
Mouse [2]; po, P.O.
  ED50: 100 mg/kg
[7]
  results on administration (in words): Good results were obtained
Dorsal hippocampus
  Increase of hippocampal discharges: 60%
Isolated rat duodenum
  EC50: 0.6 to 1 ng/mL (≈ 1.96 to 3.27 nM)
Mouse [3]; ip, I.P.
  ED50: 25 mg/kg
Mouse [3]; po, P.O.
  ED50: 25 mg/kg
Central nervous system [4]; ip, I.P.
  ED50: 30 mg/kg
Central nervous system [4]; po, P.O.
  ED50: 50 mg/kg

## CCN(CC)CCCc1ccc(C2CCCCC2)c(Cl)c1 [934 CB, 3-Chloro-4-cyclohexyl-1-(3-diethylamino-propyl)-benzene]
Toxicity, LD50 in mice; ip, I.P., read-out: LD50 I.P.
  LD50: 125 to 250 mg/kg
Toxicity, LD50 in mice; [8]
  LD50: > 750 mg/kg
Mouse [6]; ip, I.P.
  ED50: 50 mg/kg
Mouse [2]; ip, I.P.
  ED50: 30 mg/kg
Isolated rat duodenum
  EC50: 0.6 ng/mL (≈ 1.95 nM)
Mouse [3]; ip, I.P.
  ED50: 20 mg/kg
Central nervous system [4]; ip, I.P.
  ED50: 12.5 mg/kg

## CCN(CC)CC=Cc1ccc(-c2ccccc2)cc1 [994 CB, 4-(3-diethylamino-propen-1-yl)-biphenyl]
Central nervous system [1]; ip, I.P.
  ED50: 100 mg/kg
Mouse [6]; ip, I.P.
  ED50: 50 mg/kg
Mouse [6]; po, P.O.
  ED50: 50 mg/kg
Mouse [2]; ip, I.P.
  ED50: 100 mg/kg
Dorsal hippocampus
  Increase of hippocampal discharges: 20%
Isolated rat duodenum
  EC50: 3 ng/mL (≈ 11.3 nM)
Mouse [3]; ip, I.P.
  ED50: 50 mg/kg
Mouse [3]; po, P.O.
  ED50: 50 mg/kg
Central nervous system [4]; ip, I.P.
  ED50: 50 mg/kg

## CCN(CC)CC=Cc1ccc(C2CCCCC2)cc1 [31023 CB, 4-cyclohexyl-1-(3-diethylamino-propen-1-yl)-benzene]
Central nervous system [1]; ip, I.P.
  ED50: 25 mg/kg
Mouse [2]; ip, I.P.
  ED50: 25 mg/kg
Central nervous system [4]; ip, I.P.
  ED50: 30 mg/kg

## CN(C)CCCc1ccc(C2CCCCC2)c(Cl)c1 [31012 CB, 3-Chloro-4-cyclohexyl-1-(3-dimethylamino-propyl)-benzene]
Toxicity, LD50 in mice; ip, I.P., read-out: LD50 I.P.
  LD50: 250 to 300 mg/kg
Toxicity, LD50 in mice; [8]
  LD50: > 750 mg/kg
Central nervous system [1]; ip, I.P.
  ED50: 100 mg/kg
Mouse [2]; ip, I.P.
  ED50: 50 mg/kg
Mouse [3]; ip, I.P.
  ED50: 50 mg/kg
Central nervous system [4]; ip, I.P.
  ED50: 100 mg/kg

## CCN(CC)CCCc1ccc(-c2ccccc2)cc1 [31001 CB, 4-(3-diethylamino-propyl)-biphenyl]
Central nervous system [1]; ip, I.P.
  ED50: 100 mg/kg
Mouse [2]; ip, I.P.
  ED50: 50 mg/kg
Isolated rat duodenum
  EC50: 1 ng/mL (≈ 3.74 nM)
Central nervous system [4]; ip, I.P.
  ED50: 100 mg/kg

## Clc1cc(C=CCN2CCCC2)ccc1C1CCCCC1 [31015 CB, 3-Chloro-4-cyclohexyl-1-(3-pyrrolidino-propen-1-yl)-benzene]
Toxicity, LD50 in mice; ip, I.P., read-out: LD50 I.P.
  LD50: 62.5 mg/kg
Toxicity, LD50 in mice; [8]
  LD50: > 750 mg/kg
Central nervous system [1]; ip, I.P.
  ED50: 50 mg/kg
Mouse [6]; ip, I.P.
  ED50: 50 mg/kg
Mouse [2]; ip, I.P.
  ED50: 20 mg/kg
Isolated rat duodenum
  EC50: 1 to 3 ng/mL (≈ 3.29 to 9.87 nM)
Mouse [3]; ip, I.P.
  ED50: 25 mg/kg
Central nervous system [4]; ip, I.P.
  ED50: 50 mg/kg

## CN(C)CC=Cc1ccc(C2CCCCC2)c(Cl)c1 [31004 CB, 3-chloro-4-cyclohexyl-1-(3-dimethylamino-propen-1-yl)-benzene]
Toxicity, LD50 in mice; ip, I.P., read-out: LD50 I.P.
  LD50: 125 mg/kg
Toxicity, LD50 in mice; [8]
  LD50: > 750 mg/kg
Central nervous system [1]; ip, I.P.
  ED50: > 100 mg/kg
Mouse [2]; ip, I.P.
  ED50: 12.5 mg/kg
Isolated rat duodenum
  EC50: 1 to 3 ng/mL (≈ 3.6 to 10.8 nM)
Mouse [3]; ip, I.P.
  ED50: 60 mg/kg
Central nervous system [4]; ip, I.P.
  ED50: 100 mg/kg

## Clc1cc(C=CCN2CCOCC2)ccc1C1CCCCC1 [31013 CB, 3-chloro-4-cyclohexyl-1-(3-morpholino-propen-1-yl)-benzene]
Toxicity, LD50 in mice; ip, I.P., read-out: LD50 I.P.
  LD50: 500 mg/kg
Toxicity, LD50 in mice; [8]
  LD50: > 750 mg/kg
Mouse [2]; ip, I.P.
  ED50: 50 mg/kg
Mouse [3]; ip, I.P.
  ED50: 50 mg/kg

## Clc1cc(CCCN2CCCC2)ccc1C1CCCCC1 [31016 CB, 3-Chloro-4-cyclohexyl-1-(3-pyrrolidino-propyl)-benzene]
Toxicity, LD50 in mice; ip, I.P., read-out: LD50 I.P.
  LD50: 50 to 100 mg/kg
Toxicity, LD50 in mice; [8]
  LD50: > 750 mg/kg
Mouse [6]; ip, I.P.
  ED50: 50 mg/kg
Mouse [2]; ip, I.P.
  ED50: 12.5 mg/kg
Mouse [3]; ip, I.P.
  ED50: 20 mg/kg
